Values of other authors, collected in patent US9040545B2, “Heterocyclyl pyrazolopyrimidine analogues as selective JAK inhibitors” (Cellzome Limited, priority 2010, dated 2015).

What was measured:
[1] = literature; cited from earlier work
[2] = NOD mouse, literature; cited from earlier work
[3] = literature; cited from earlier work; remark: listed apart in the source

Row | Compound | efficacy in an animal model of organ transplantation [1] | spontaneous autoimmune diabetes development [2] | severity of GVHD [3]
1 | C[C@@H]1CCN(C(=O)CC#N)C[C@@H]1N(C)c1ncnc2[nH]ccc12 [CP-690,550] | efficacy |  | 
2 | COc1cc2ncnc(Nc3ccc(O)cc3)c2cc1OC [JANEX-1] |  | prevent spontaneous autoimmune diabetes development | attenuate the severity of GVHD
